According to ChEMBL document CHEMBL1126342, “Synthesis and preliminary biological evaluation of 1-aminomethyl-4-substituted-4-H-pyrrolo[2,1-C][1,4] benzothiazines, a new class of calcium antagonists” (Bioorg Med Chem Lett, 1992):
Several values for one entry are separate records, joined by “and”; a condition that tells them apart may be missing. Equal values may be shown once.

Assays:
Mus musculus [1] = species: Mus musculus; test: Blocking calcium channels in mice using electrophysiological technique at 10 uM; format: functional
Mus musculus [2] = species: Mus musculus; test: Blocking calcium channels in mice using electrophysiological technique at 100 uM; format: functional
[3] = target: Voltage-gated L-type calcium channel (Rattus norvegicus, UniProt P22002+Q02485+P27732); test: Displacement of [3H]nitrendipine from calcium channel receptor; format: protein assay

Structure (SMILES) | Activity (Mus musculus [1]) | Activity (Mus musculus [2]) [%] | IC50 [3] [nM] | Ki [3] [nM]
COc1ccc([C@@H]2Sc3ccccc3N(CCN(C)C)C(=O)[C@@H]2OC(C)=O)cc1 [DILTIAZEM] | 24% | 62 | – | –
COc1ccc(C2Sc3ccccc3-n3c(CN(C)C)ccc32)cc1 (centres undefined) | 20% | 62 | – | –
CN(C)Cc1ccc2n1-c1ccccc1SC2c1ccccc1 (centres undefined) | 40% and 65% | – | 315 | 118
COc1ccc(C2Sc3ccccc3-n3c(CN(C)C)ccc32)c(OC)c1 (centres undefined) | 24% | 74 | 150 | 56
COc1ccc(C2Sc3ccccc3-n3c(CNc4ccc(F)cc4)ccc32)cc1 (centres undefined) | – | – | 5870 | 2200
COc1ccc(C2Sc3ccccc3-n3c(CN(C)CCc4ccc(OC)c(OC)c4)ccc32)cc1.Cl (centres undefined) | – | – | 53 | 19
CCC(C)NCc1ccc2n1-c1ccccc1SC2c1ccc(OC)cc1OC (centres undefined) | – | – | 14.8 | 5.55
COc1ccc(C2Sc3ccccc3-n3c(CNCCc4ccc(OC)c(OC)c4)ccc32)cc1 (centres undefined) | – | – | 534 | 200
